We go through two compounds from ChEMBL document CHEMBL4339215, “Inhibition of PCSK9D374Y/LDLR Protein-Protein Interaction by Computationally Designed T9 Lupin Peptide” (ACS Med Chem Lett, 2019).

Active and inactive are the calls of the source. No cut-off for these calls is given here.

In experiment [1] the test system is PCSK9/LDLR (Homo sapiens), Q8NBP7+P01130 [D374Y]. The experiment is described as follows: (§1) Binding affinity to C-terminal His tagged purified recombinant PCSK9 D374Y mutant (unknown origin) expressed in HEK293 cells assessed as dose dependent reduction in PCSK9/LDLR protein-protein interaction at 0.1 uM to 1 mM uM by chemiluminescent assay.
For experiment [2] the test system is unchanged. The experiment is described as follows: Binding affinity to C-terminal His tagged purified recombinant PCSK9 D374Y mutant (unknown origin) expressed in HEK293 cells assessed as reduction in PCSK9/LDLR protein-protein interaction at 100 uM by chemiluminescent assay.
The next experiment addresses PCSK9/LDLR (Homo sapiens, UniProt Q8NBP7, D374Y). Described as §1.
Experiment [3] deals with PCSK9/LDLR (Homo sapiens), Q8NBP7+P01130 [D374Y]. The experiment is described as follows: Inhibition of C-terminal His tagged purified recombinant PCSK9 D374Y mutant (unknown origin) and LDLR protein-protein interaction expressed in human HepG2 cells assessed as LDLR protein expression level at cell surface at 10 uM incubated for 2 hrs by in-cell western analysis relative to T9 peptide. Further details: scale not given: the % may be the effect or the level left. The format is cell-based.

The test system is the same in experiment [4]. Put plainly: Inhibition of C-terminal His tagged purified recombinant PCSK9 D374Y mutant (unknown origin) and LDLR protein-protein interaction expressed in human HepG2 cells assessed as LDLR protein expression level at cell surface at 10 uM incubated for 2 hrs by in-cell western analysis (reference value: 39.6 +/- 0.7%). In kind it is cell-based. More on the design: scale not given: the % may be the effect or the level left.

For experiment [5] the test system is unchanged. The experiment is described as follows: Potency index, ratio of T9 to test compound for inhibition of C-terminal His tagged purified recombinant PCSK9 D374Y mutant (unknown origin) and LDLR protein-protein interaction expressed in human HepG2 cells assessed as LDL-C uptake level at 10 uM incubated for 2 hrs by fluorescent LDL uptake cell-based assay.

For experiment [6] the test system is unchanged. The experiment is described as follows: Inhibition of C-terminal His tagged purified recombinant PCSK9 D374Y mutant (unknown origin) and LDLR protein-protein interaction expressed in human HepG2 cells assessed as LDL-C uptake level at 10 uM incubated for 2 hrs by fluorescent LDL uptake cell-based assay (42.1 +/- 1.6%). More on the design: scale not given: the % may be the effect or the level left.

PCSK9/LDLR, sequence (Q8NBP7 whole entry D374Y, looked up): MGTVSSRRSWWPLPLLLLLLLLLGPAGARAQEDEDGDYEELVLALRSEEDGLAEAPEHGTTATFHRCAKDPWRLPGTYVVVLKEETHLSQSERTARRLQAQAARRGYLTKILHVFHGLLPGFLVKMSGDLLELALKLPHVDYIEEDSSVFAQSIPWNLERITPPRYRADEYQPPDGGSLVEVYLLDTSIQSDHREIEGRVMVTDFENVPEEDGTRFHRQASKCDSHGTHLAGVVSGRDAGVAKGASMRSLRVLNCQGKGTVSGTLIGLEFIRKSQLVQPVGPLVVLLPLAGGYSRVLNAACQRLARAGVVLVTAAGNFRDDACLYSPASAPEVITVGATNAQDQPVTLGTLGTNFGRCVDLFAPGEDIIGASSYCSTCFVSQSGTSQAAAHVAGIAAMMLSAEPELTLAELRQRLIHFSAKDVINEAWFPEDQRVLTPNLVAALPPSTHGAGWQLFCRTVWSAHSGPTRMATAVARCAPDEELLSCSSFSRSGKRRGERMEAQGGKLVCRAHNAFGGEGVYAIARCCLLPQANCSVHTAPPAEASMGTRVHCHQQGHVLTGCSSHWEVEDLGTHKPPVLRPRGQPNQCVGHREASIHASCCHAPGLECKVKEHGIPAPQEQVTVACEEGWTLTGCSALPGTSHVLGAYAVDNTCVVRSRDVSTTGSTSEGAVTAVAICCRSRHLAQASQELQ

In general, inhibition refers to the percentage by which the read-out fell short of the control. As to `CC[C@H](C)[C@H](NC(=O)[C@@H](NC(=O)CNC(=O)[C@H](CCC(=O)O)NC(=O)[C@H](C)NC(=O)[C@H](CCC(N)=O)NC(=O)[C@H](Cc1cnc[nH]1)NC(=O)[C@H](CO)NC(=O)[C@H](CCC(N)=O)NC(=O)[C@H](CCC(=O)O)NC(=O)[C@H](CCC(N)=O)NC(=O)CN)C(C)C)C(=O)N[C@H](C(=O)N[C@@H](CCCNC(=N)N)C(=O)O)C(C)C`, in experiment [1], the inhibition result was “inactive”. In experiment [2], the inhibition stood at 31.3%.

The IC50 is the concentration at which inhibition is half-maximal. As for H-GQRQWKQAEGVMVR-OH, the IC50 on PCSK9/LDLR is 148 µM. In experiment [1], the inhibition result is “Dose-dependent effect”. The Activity in experiment [3] stood at 12.7%; in experiment [4], 83.8%; in experiment [6], 102%. Further, the Ratio in experiment [5] came to 35.
